Experimental data from the supplement of paper PMC4862054.

Tests used:
Details in all cases: 72 h
[1] = tested on: BT-474
Procedure, shortened: (§1)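 Breast cancer cell lines (20 µl suspension) were seeded into 384-well plates holding compound at 5 concentrations in 10-fold steps over a compound-specific 10,000-fold range, then incubated 72 h. Cell death was read first by CellTox Green fluorescence (485/520 nm), then viability by CellTiter-Glo luminescence after 10 min at room temperature. Each plate was normalised to 0.1 % DMSO and a positive kill control. EC50 was fitted from the dose-response curves and censored at the top concentration.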

[2] = tested on: BT-549
Procedure, shortened: as §1

[3] = tested on: CAL-148
Procedure, shortened: as §1

[4] = tested on: CAL-85-1
Procedure, shortened: as §1

[5] = tested on: DU-4475
Procedure, shortened: as §1

[6] = tested on: HCC1599
Procedure, shortened: as §1

[7] = tested on: MDA-MB-231
Procedure, shortened: as §1

[8] = tested on: MDA-MB-436
Procedure, shortened: as §1

[9] = tested on: MDA-MB-453
Procedure, shortened: as §1

[10] = tested on: MDA-MB-468
Procedure, shortened: as §1

[11] = tested on: MFM-223
Procedure, shortened: as §1

[12] = tested on: SK-BR-3
Procedure, shortened: as §1

[13] = tested on: BT-474; remark: listed apart in the source
Procedure: (§2)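 Drug sensitivity and resistance testing (DSRT) of breast cancer cell lines in 384-well plates, 5 concentrations in 10-fold dilutions over a compound-specific 10,000-fold range. After 72 h, cytotoxicity was read by CellTox Green fluorescence and viability by CellTiter-Glo luminescence (multiplexed), normalised to DMSO and benzethonium chloride controls. EC50 is the inflection point of the fitted dose-response curve (bottom asymptote free, so it can be relative for partial curves) and is censored at the highest tested concentration. Rows with DSS 0 (no meaningful response) were excluded.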

[14] = tested on: CAL-85-1; remark: listed apart in the source
Procedure: as §2

[15] = tested on: HCC1599; remark: listed apart in the source
Procedure: as §2

[16] = tested on: MDA-MB-231; remark: listed apart in the source
Procedure: as §2

[17] = tested on: MDA-MB-453; remark: listed apart in the source
Procedure: as §2

[18] = tested on: MFM-223; remark: listed apart in the source
Procedure: as §2

[19] = tested on: HCC1599; remark: listed apart in the source
Procedure, shortened: (§3)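 Viability of breast cancer cell lines was measured with CellTiter-Blue after 72 h of incubation on compound-loaded 384-well plates. Cells were seeded in 20 µl onto compound dissolved in 5 µl medium, and 2.5 µl reagent was added for 2 h at 37 °C before reading at 560/590 nm. EC50 was fitted from percent-inhibition dose-response data censored at the highest concentration, normalised per plate to vehicle and a positive kill control, with zero drug sensitivity score rows dropped.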

[20] = tested on: Hs578T
Procedure, shortened: as §1

[21] = tested on: CAL-148; remark: listed apart in the source
Procedure, shortened: as §3

[22] = tested on: CAL-51
Procedure, shortened: as §3

[23] = tested on: MDA-MB-453; remark: listed apart in the source
Procedure, shortened: as §3

[24] = tested on: BT-474; remark: listed apart in the source
Procedure, shortened: as §3

[25] = tested on: MDA-MB-468; remark: listed apart in the source
Procedure, shortened: as §3

[26] = tested on: MFM-223; remark: listed apart in the source
Procedure, shortened: as §3

[27] = tested on: SK-BR-3; remark: listed apart in the source
Procedure, shortened: as §3

[28] = tested on: CAL-148; remark: listed apart in the source
Procedure: as §2

[29] = tested on: CAL-120
Procedure, shortened: as §1

[30] = tested on: CAL-51; remark: listed apart in the source
Procedure, shortened: as §1

[31] = tested on: DU-4475; remark: listed apart in the source
Procedure, shortened: as §3

[32] = tested on: HCC1937
Procedure, shortened: as §3

[33] = tested on: MDA-MB-436; remark: listed apart in the source
Procedure: as §2

[34] = tested on: HCC1143
Procedure, shortened: as §1

[35] = tested on: HCC1937; remark: listed apart in the source
Procedure, shortened: as §1

[36] = tested on: HDQ-P1
Procedure, shortened: as §1

[37] = tested on: MCF-10A
Procedure, shortened: as §1

[38] = tested on: CAL-85-1; remark: listed apart in the source
Procedure, shortened: as §3

[39] = tested on: HDQ-P1; remark: listed apart in the source
Procedure, shortened: as §3

[40] = tested on: BT-549; remark: listed apart in the source
Procedure, shortened: as §3

[41] = tested on: CAL-120; remark: listed apart in the source
Procedure, shortened: as §3

[42] = tested on: HCC1143; remark: listed apart in the source
Procedure, shortened: as §3

[43] = tested on: Hs578T; remark: listed apart in the source
Procedure, shortened: as §3

[44] = tested on: MDA-MB-231; remark: listed apart in the source
Procedure, shortened: as §3

[45] = tested on: MDA-MB-436; remark: listed apart in the source
Procedure, shortened: as §3

[46] = tested on: Hs578T; remark: listed apart in the source
Procedure: as §2

[47] = tested on: MCF-10A; remark: listed apart in the source
Procedure: as §2

[48] = tested on: MDA-MB-468; remark: listed apart in the source
Procedure: as §2

[49] = tested on: CAL-120; remark: listed apart in the source
Procedure: as §2

CCCc1cc(C)[nH]c(=O)c1CNC(=O)c1cc(-c2ccnc(N3CCN(C)CC3)c2)cc2c1cnn2C(C)C [GSK343]
EC50, CellTiter-Glo [1]: 4570 nM
EC50, CellTiter-Glo [2]: 3210 nM
EC50, CellTiter-Glo [3]: 1860 nM
EC50, CellTiter-Glo [4]: 7160 nM
EC50, CellTiter-Glo [5]: 2380 nM
EC50, CellTiter-Glo [6]: 5170 nM
EC50, CellTiter-Glo [7]: 3820 nM
EC50, CellTiter-Glo [8]: 5170 nM
EC50, CellTiter-Glo [9]: 2690 nM
EC50, CellTiter-Glo [10]: 2980 nM
EC50, CellTiter-Glo [11]: 7400 nM
EC50, CellTiter-Glo [12]: 2750 nM
EC50, CellTox Green [13]: 3370 nM
EC50, CellTox Green [14]: 3440 nM
EC50, CellTox Green [15]: > 10000 nM
EC50, CellTox Green [16]: 2280 nM
EC50, CellTox Green [17]: 2680 nM
EC50, CellTox Green [18]: 227 nM

O=C(O)CC[C@H]1CC[C@@](c2cc(F)ccc2F)(S(=O)(=O)c2ccc(Cl)cc2)CC1 [MK-0752]
EC50, CellTiter-Blue viability [19]: 70.2 nM

NC1(c2ccc(-c3nc4ccn5c(=O)[nH]nc5c4cc3-c3ccccc3)cc2)CCC1 [MK-2206]
EC50, CellTiter-Glo [2]: 137 nM
EC50, CellTiter-Glo [3]: 279 nM
EC50, CellTiter-Glo [5]: > 1000 nM
EC50, CellTiter-Glo [20]: > 1000 nM
EC50, CellTiter-Glo [9]: 472 nM
EC50, CellTiter-Glo [11]: 436 nM
EC50, CellTiter-Glo [12]: 280 nM
EC50, CellTiter-Blue viability [21]: 790 nM
EC50, CellTiter-Blue viability [22]: 942 nM
EC50, CellTiter-Blue viability [23]: 436 nM
EC50, CellTiter-Blue viability [24]: 192 nM
EC50, CellTiter-Blue viability [25]: 131 nM
EC50, CellTiter-Blue viability [26]: 369 nM
EC50, CellTiter-Blue viability [27]: 116 nM
EC50, CellTox Green [28]: 478 nM

O=C(c1cc(Cc2n[nH]c(=O)c3ccccc23)ccc1F)N1CCN(C(=O)C2CC2)CC1 [Olaparib]
EC50, CellTiter-Glo [2]: 4140 nM
EC50, CellTiter-Glo [29]: > 10000 nM
EC50, CellTiter-Glo [3]: 1200 nM
EC50, CellTiter-Glo [30]: 45.4 nM
EC50, CellTiter-Glo [8]: 1040 nM
EC50, CellTiter-Glo [10]: 1510 nM
EC50, CellTiter-Blue viability [22]: 6590 nM
EC50, CellTiter-Blue viability [31]: 418 nM
EC50, CellTiter-Blue viability [32]: 116 nM
EC50, CellTiter-Blue viability [25]: 1610 nM
EC50, CellTox Green [33]: 498 nM

CO[C@H](C(=O)[C@@H](O)[C@@H](C)O)[C@@H]1Cc2cc3cc(O[C@H]4C[C@@H](O[C@@H]5C[C@@H](O)[C@H](O)[C@@H](C)O5)[C@H](O)[C@@H](C)O4)c(C)c(O)c3c(O)c2C(=O)[C@H]1O[C@H]1C[C@@H](O[C@@H]2C[C@@H](O)[C@@H](O[C@@H]3C[C@](C)(O)[C@H](O)[C@@H](C)O3)[C@@H](C)O2)[C@H](O)[C@@H](C)O1 [Plicamycin]
EC50, CellTiter-Glo [1]: 2440 nM
EC50, CellTiter-Glo [2]: 2340 nM
EC50, CellTiter-Glo [29]: 6760 nM
EC50, CellTiter-Glo [3]: 4000 nM
EC50, CellTiter-Glo [30]: 240 nM
EC50, CellTiter-Glo [4]: 4270 nM
EC50, CellTiter-Glo [5]: 3220 nM
EC50, CellTiter-Glo [34]: 3910 nM
EC50, CellTiter-Glo [6]: 4450 nM
EC50, CellTiter-Glo [35]: 4190 nM
EC50, CellTiter-Glo [36]: 5650 nM
EC50, CellTiter-Glo [20]: 4220 nM
EC50, CellTiter-Glo [37]: 4120 nM
EC50, CellTiter-Glo [7]: 3020 nM
EC50, CellTiter-Glo [8]: 6150 nM
EC50, CellTiter-Glo [9]: 5310 nM
EC50, CellTiter-Glo [10]: 2510 nM
EC50, CellTiter-Glo [11]: 7030 nM
EC50, CellTiter-Glo [12]: 4530 nM
EC50, CellTiter-Blue viability [21]: 73.6 nM
EC50, CellTiter-Blue viability [22]: 124 nM
EC50, CellTiter-Blue viability [38]: 83.7 nM
EC50, CellTiter-Blue viability [31]: 48.8 nM
EC50, CellTiter-Blue viability [39]: 84.5 nM
EC50, CellTiter-Blue viability [23]: 82 nM
EC50, CellTiter-Blue viability [24]: 123 nM
EC50, CellTiter-Blue viability [40]: 33.6 nM
EC50, CellTiter-Blue viability [41]: 47.1 nM
EC50, CellTiter-Blue viability [42]: 26.9 nM
EC50, CellTiter-Blue viability [19]: 105 nM
EC50, CellTiter-Blue viability [32]: 37.2 nM
EC50, CellTiter-Blue viability [43]: 30.8 nM
EC50, CellTiter-Blue viability [44]: 41.6 nM
EC50, CellTiter-Blue viability [45]: 25.5 nM
EC50, CellTiter-Blue viability [25]: 28.1 nM
EC50, CellTiter-Blue viability [26]: 168 nM
EC50, CellTiter-Blue viability [27]: 49.8 nM
EC50, CellTox Green [14]: 8290 nM
EC50, CellTox Green [46]: 6420 nM
EC50, CellTox Green [47]: 2850 nM
EC50, CellTox Green [17]: 7420 nM
EC50, CellTox Green [48]: 390 nM

C[C@]12C=CC(=O)C=C1CC[C@@H]1[C@@H]2C(=O)C[C@@]2(C)[C@H]1CC[C@]2(O)C(=O)CO [Prednisone]
EC50, CellTiter-Glo [29]: 8390 nM
EC50, CellTox Green [49]: 1000 nM
